Assay [1] relates to HLEpiC. In words: Inhibitory action on cell migration (Oris Cell Migration plate). Type of assay: cell-based, human. Conditions: about 24 and 48 hours after treatment. How it is done:
HLEpiC was diluted with a medium (Epithelial Cell Medium) and dispensed to Poly-L-lysine coated Oris™ Cell Migration 96 well plate, to which a stopper was firmly attached, at 50 μL/well (25000 cells/well) and cultured in a carbon dioxide incubator (37° C., 5% CO2) for 24 hours. The stopper was removed, and after brief washing with the medium, a solution obtained by adding 5 μL of 10 mM Cell Tracker Green Fluorescent Probe (Lonza Walkersville, Inc.) to 4995 μL of the medium was added at 100 μL/well, and the cells were stained in a carbon dioxide incubator (37° C., 5% CO2) for about 30 minutes. After brief washing with the medium, the medium was further added and the cells were cultured in a carbon dioxide incubator (37° C., 5% CO2) for about 30 minutes.
After brief washing with the medium, a test substance, a positive control, a comparative control or the medium (control) at each concentration given below was added at 100 μL/well.
(§1) Test substance: Ripasudil with a concentration of […], 100 μM or 1 mM,
Positive control: CD with a concentration of 2 μM,
These were cultured in a carbon dioxide incubator (37° C., 5% CO2). The state of HLEpiC in the Detection Zone in each sample was observed by a confocal laser scanning microscope about 24 hours after the treatment and 48 hours after the treatment.

Assay [2] has as its system Human lens epithelial cells (HLEpiC). In words: Reversibility of inhibition of actin stress fiber formation after removal. Conditions: recultured about 24 hours after removal. Type of assay: cell-based. The method, then: After removal of the test substance, positive control or comparative control in Example 1, the cells were recultured for about another 24 hours, treated in accordance with the operation in Example 1, and then observed by a confocal laser scanning microscope in the same manner as in Example 1 to observe the reversibility of actin stress fibers.

Assay [3] has as its system HLEpiC. Nature of the assay: Reversibility of inhibition of cell migration after removal. In kind it is cell-based, human. Conditions: for time after removal at which Detection Zone was filled with HLEpiC: then removal. The method, then: After the operation in Example 4, the test substance, the positive control, or the comparative control was removed, and after brief washing with the medium, the medium was added at 100 μL/well, and the cells were cultured in a carbon dioxide incubator (37° C., 5% CO2).

Assay [4] relates to bovine lens cells. Conditions: cited from earlier work.
In assay [5] the test system is Human lens epithelial cells (HLEpiC). In words: Inhibitory action on actin stress fiber formation (phalloidin staining, confocal microscopy). In kind it is cell-based. Conditions: treated about an hour. The method, then: Human lens epithelial cells (HLEpiC (ScienCell Research Laboratories)) were diluted with a medium (Epithelial Cell Medium (ScienCell Research Laboratories)), dispensed to each well of Poly-L-lysine (ScienCell Research Laboratories) coated Imaging Chamber CG at 100 μL/well (about 5000 cells/cm^2), and cultured in a carbon dioxide incubator (37° C., 5% CO2) until about 50% confluent. The medium was removed with vacuum suction and a test substance, a positive control, a comparative control, or the medium (control) at each concentration given below was added to each well at 300 μL/well:
Test substance: Ripasudil with a concentration of 10 μM, 100 μM or 1 mM,
Positive control: Cytochalasin D with a concentration of 2 μM,
These were treated in a carbon dioxide incubator (37° C., 5% CO2) for about an hour, and then washed once with the medium. 4% Paraformaldehyde Phosphate Buffer Solution (Wako Pure Chemical Industries, Ltd.) (hereinafter, referred to as a fixative solution) was added at 300 μL/well, and fixation was carried out at room temperature for 2 minutes. After washing with the medium, 0.5% Triton X-100 (Roche Diagnostics K.K.) was added at 300 μL/well, and penetrated at room temperature for 2 minutes. After washing with the medium, the fixative solution was added at 300 μL/well, and fixation was carried out at room temperature for 20 minutes.
Separately, 25 μL of 14 μM Actin-Stain™ 555 phalloidin (Cytoskeleton, Inc.) (hereinafter, referred to as Phalloidin) was added to 3475 μL of 10 mM phosphate buffered saline (Wako Pure Chemical Industries, Ltd.) to produce 100 nM Phalloidin.
This 100 nM Phalloidin was added to each well washed with the medium at 200 μL/well, and staining was carried out at room temperature in a dark place for about 60 minutes.
After washing with the medium, the chamber was removed, and […] Mounting Medium with DAPI (Vector Laboratories, Inc.) was dropped onto a cover glass with a few drops. A slide glass was placed thereon and this was left to stand at room temperature in a dark place for 30 minutes or more, and adhesion and nuclear staining were carried out and then observed by a confocal laser scanning microscope.

The subject of assay [6] is myofibroblasts. To be noted: cited from earlier work.
In assay [7] the test system is hyalocyte-containing collagen gel. To be noted: cited from earlier work.
The subject of assay [8] is Soemmerring's ring, posterior capsule opacification (PCO). Conditions: cited from earlier work.
Assay [9] relates to HLEpiC. Nature of the assay: Determination of G-actin/F-actin ratio using G-Actin/F-Actin In Vivo Assay Kit. In kind it is cell-based, human. Conditions: 2 μM, about an hour; control 1.16. How it is done: HLEpiC was diluted with a medium (Epithelial Cell Medium), and dispensed to a Poly-L-lysine coated T-75 flask at about 5000 cells/cm^2, and cultured in a carbon dioxide incubator (37° C., 5% CO2) until about 50% confluent. A test substance, a positive control or the medium (control) at each concentration given below was added to each flask at 20 mL.
as §1
Positive control: CD with a concentration of 2 μM, and
These were treated in a carbon dioxide incubator (37° C., 5% CO2) for about an hour.
To 20 mL of Lysis and F-actin stabilization buffer was added 200 μL of 100 mM ATP stock solution and 200 μL of 100× Protease inhibitor cocktail stock to produce LAS2 buffer, and this was incubated in a carbon dioxide incubator (37° C.) for about 30 minutes. Warmed LAS2 buffer was added at 2.5 mL to each flask in which the medium was removed with vacuum suction.
Next, adherent HLEpiC was completely scraped with a cell scraper and transferred with the LAS2 buffer to a conical tube, and HLEpiC was crushed with a micropipette (hereinafter, referred to as cell solution). This cell solution was incubated in a carbon dioxide incubator (37° C.) for about 10 minutes and then centrifuged for 10 minutes (2000 rpm, room temperature). The supernatant was dispensed into an ultracentrifugal tube at 1.8 mL and centrifuged for an hour with an ultracentrifuge (100,000× g, 37° C.). At this time, F-actin is precipitated and G-actin remains in the supernatant.
The supernatant was transferred to a conical tube while being careful not to suck F-actin precipitates.
To precipitates of each sample was added 1.8 mL of F-actin depolymerizing buffer, and this was incubated under ice-cold conditions for an hour to depolymerize actin.
From each supernatant sample and precipitate sample, 100 μL each was put in a 1.5 mL Eppendorf tube, and 25 μL of 5×SDS sample buffer was added and stirred.
Each sample was boiled in a boiling water bath for 5 minutes.
Each sample was subjected to SDS-polyacrylamide gel electrophoresis, followed by Western blotting.
Next, after treatment using a Western blotting detection reagent (ECL Select Western Blotting Detection Reagent, GE Healthcare Japan), proteins were detected using a Lumino image analyzer. The quantities of G-actin and F-actin were determined using an analysis software (ImageQuant TL, GE Healthcare Japan) and the G-actin/F-actin ratio was calculated.
The variation in the quantity of F-actin required to form actin stress fibers was evaluated by comparison with the G-actin/F-actin ratio of untreated (Control) cells.

With `C[C@@H](N)[C@H]1CC[C@H](C(=O)Nc2ccncc2)CC1` [Y-27632, reference compound], the “cell migration into Detection Zone (observation)” value in assay [1] (1 mM) is “inhibitory action on cell migration was also recognized”. Also, in assay [2] (1 mM), the “reversibility of actin stress fibers” value is given as “recovered”. In assay [3] (1 mM treatment, about 48 hours after removal), the “state of Detection Zone about 48 hours after removal” value is “not filled with HLEpiC”. The “time after removal at which Detection Zone was filled with HLEpiC” value in assay [3] (1 mM treatment) is 116 h. Further, the “contraction induced by cytokines such as PDGF-BB and TGF-β2” value in assay [4] is “inhibited contraction”. In assay [5] (1 mM), the “actin stress fibers (observation)” value is reported as “disappear”. The “transdifferentiation and contraction of myofibroblasts induced by TGF-β” value (“transdifferentiation and contraction” for short) in [6] is “inhibit the transdifferentiation and contraction”.

Turning to `O=S(=O)(c1cccc2cnccc12)N1CCCNCC1` [HA-1077], the “transdifferentiation and contraction” value in assay [6] is “inhibit the transdifferentiation and contraction”.

In the case of `O=S(=O)(c1cccc2cnccc12)N1CCCNCC1` [fasudil], in [7], the “hyalocyte-containing collagen gel contraction” value is given as “inhibits”.

Regarding `Cc1cncc2cccc(S(=O)(=O)N3CCCNC[C@@H]3C)c12` [H-1152], the “transdifferentiation and contraction” value in [6] is “inhibit the transdifferentiation and contraction”.

As to `CC1CNCCN1S(=O)(=O)c1cccc2cnccc12` (stereo not shown) [H-7], in assay [8], the “effect on posterior capsule opacification (PCO)” value is on record as “ineffective” and the “resolving Soemmerring's ring” value is listed as “effective”.

Consider `C=C1[C@@H](C)[C@H]2[C@H](Cc3ccccc3)NC(=O)[C@]23[C@H](OC(C)=O)/C=C/[C@@](C)(O)C(=O)[C@@H](C)C/C=C/[C@H]3[C@@H]1O` [Cytochalasin D, reference compound], for which the G-actin/F-actin ratio in assay [9] is 25.03. For the same molecule, the “cell migration into Detection Zone (observation)” value in assay [1] (2 μM) is “inhibitory action on cell migration was further recognized”. In addition, the “reversibility of actin stress fibers” value in [2] (2 μM) is “recovered”. In addition, in [3] (2 μM treatment), the “time after removal at which Detection Zone was filled with HLEpiC” value was “about 48 hours”. For the same molecule, the “actin stress fibers (observation)” value in assay [5] (2 μM) was “significantly disappear”.

On to `O=c1[nH]ccc2c(S(=O)(=O)N3CCCNCC3)cccc12` [HF, Hydroxyfasudil], for which the “contraction induced by cytokines such as PDGF-BB and TGF-β2” value in [4] is reported as “inhibited contraction”.

Turning to `O=S(=O)(c1cccc2c(I)cccc12)N1CCCNCC1` [ML-7], the “transdifferentiation and contraction” value in assay [6] is “inhibit the transdifferentiation and contraction”.

These data come from patent publication US9844556B2, “Preventive/therapeutic method and preventive/therapeutic agent for complications after cataract surgery” (KOWA COMPANY, LTD., priority 2015, dated 2017).
